Data: US20240116985A1, “STAPLED PEPTIDES AND METHODS THEREOF” (priority 2020, published 2024)
Converted amounts (≈) assume the structure as drawn. Where two headings read alike, the source gives them in different places.

What was measured:
Solubility in PBS = type: physicochemical
Method in brief: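 Solubility is derived from HPLC peak areas: the ratio of the PBS supernatant peak to a 50 μM DMSO peptide peak, times 50 uM.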

[1] = molecular target: T1, beta-catenin/TCF4 engagement (Homo sapiens, UniProt P35222); experiment: Nano-BRET target engagement assay (B-cat-Halo & TCF4-Luc in HEK293 cells); type: cell-based; conditions: for IC50: read-out: NanoBRET Abs IC50
T1 construct: expressed in transfected cells; host or cells: HEK293
T1 sequence (P35222 1-781): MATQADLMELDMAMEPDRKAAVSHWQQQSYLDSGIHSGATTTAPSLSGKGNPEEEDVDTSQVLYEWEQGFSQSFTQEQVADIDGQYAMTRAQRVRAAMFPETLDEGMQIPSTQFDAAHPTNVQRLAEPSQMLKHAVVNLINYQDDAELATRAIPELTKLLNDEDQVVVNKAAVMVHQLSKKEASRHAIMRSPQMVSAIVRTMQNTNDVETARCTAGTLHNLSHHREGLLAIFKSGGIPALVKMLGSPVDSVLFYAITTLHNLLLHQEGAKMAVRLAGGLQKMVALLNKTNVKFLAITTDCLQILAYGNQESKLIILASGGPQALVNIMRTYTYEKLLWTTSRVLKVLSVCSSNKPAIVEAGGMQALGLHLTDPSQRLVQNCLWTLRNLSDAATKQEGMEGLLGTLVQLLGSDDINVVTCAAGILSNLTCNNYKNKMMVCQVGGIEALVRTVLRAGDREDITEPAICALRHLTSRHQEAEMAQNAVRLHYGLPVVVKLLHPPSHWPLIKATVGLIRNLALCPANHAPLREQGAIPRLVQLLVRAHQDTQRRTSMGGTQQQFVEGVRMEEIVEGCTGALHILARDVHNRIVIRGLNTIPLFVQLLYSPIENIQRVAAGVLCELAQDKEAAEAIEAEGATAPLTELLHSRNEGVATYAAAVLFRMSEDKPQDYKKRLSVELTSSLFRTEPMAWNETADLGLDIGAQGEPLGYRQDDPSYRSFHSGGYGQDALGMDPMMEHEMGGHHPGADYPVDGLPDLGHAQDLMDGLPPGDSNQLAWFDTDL

[2] = molecular target: T2, full-length beta-Catenin (Uniprot ID P35222) (Homo sapiens, UniProt P35222); experiment: Fluorescence polarization IC50 (beta-catenin / 5FAM-TCF4 10-53 competition); type: binding
T2 construct: 10 nM full-length beta-Catenin (Uniprot ID P35222)
T2 sequence (P35222 1-781): T1 sequence (P35222 1-781)

CHI Log D procedure = type: physicochemical; conditions: for chromatographic logD: pH 7.4, CHI Log D; for CHI Log D: pH 7.4
[3] = fluorescence polarization, read-out: beta-Catenin FP IC50

SMILES	Solubility (Solubility in PBS)	IC50 ([1]; absolute IC50)	IC50 ([2]; read-out: beta-Catenin FP IC50)	chromatographic logD (CHI Log D procedure)	Solubility (Solubility in PBS; Solubility (uM))	IC50 [1]	IC50 [2, 3]	IC50 ([2]; read-out: FP EC50)	CHI Log D (CHI Log D procedure)	inhibition at 10 µM ([1]; HEK293, @ 10 uM, read-out: NanoBRET % inh @ 10 uM)
CC(=O)N1CCC[C@]12CC=CCCCC1(CCCC=CCCCOC(=O)N3CC[C@@](C(=O)N[C@@H](Cc4ccccc4Cl)C(=O)N[C@@H](Cc4csc5ccccc45)C(=O)N[C@@H](CO)C(N)=O)(C3)NC(=O)[C@H](CC(N)=O)NC(=O)[C@H](Cc3ccccc3)NC(=O)[C@H](C)NC(=O)[C@H](C)NC(=O)[C@H](CC(=O)O)NC(=O)[C@H](CC(=O)O)NC1=O)NC(=O)[C@H](Cc1ccccc1)NC(=O)[C@H](CC(=O)O)NC2=O (stereo partly drawn) [I-1047, Ac-PL3-Asp-Phe-B5-Asp-Asp-Ala-Ala-Phe-Asn-PyrS2-2C1F-BztA-Ser-NH2]	10 µM (≈ 19.3 µg/mL)	28.4 µM	5 nM	2.19	–	–	–	–	–	–
CC(=O)N1CCC[C@]12CC=CCCCC1(CCCC=CCCCOC(=O)N3CC[C@@](C(=O)N[C@@H](Cc4ccccc4)C(=O)N[C@@H](Cc4csc5ccccc45)C(=O)N[C@@H](CCC(N)=O)C(N)=O)(C3)NC(=O)[C@H](CC(C)C)NC(=O)[C@H](Cc3cccc(C(F)(F)F)c3)NC(=O)[C@H](C)NC(=O)[C@H](C)NC(=O)[C@H](CC(=O)O)NC(=O)[C@H](CC(=O)O)NC1=O)NC(=O)[C@H](CC(C)(C)C)NC(=O)[C@H](CC(=O)O)NC2=O (stereo partly drawn) [I-1128, Ac-PL3-Asp-Npg-B5-Asp-Asp-Ala-Ala-3F3MeF-Leu-PyrS2-Phe-BztA-Gln-NH2]	–	–	20 nM	2.3	23 µM (≈ 45.5 µg/mL)	8.1 µM	–	–	–	–
CC(=O)N1CCC[C@]12CC=CCCCC1(CCCC=CCCCOC(=O)N3CC[C@@](C(=O)N[C@@H](Cc4ccsc4)C(=O)N[C@@H](Cc4csc5ccccc45)C(=O)N[C@@H](CCC(N)=O)C(N)=O)(C3)NC(=O)[C@H](CC(N)=O)NC(=O)[C@H](Cc3ccccc3)NC(=O)[C@H](CCCCNC(=O)CN3CCN(C)CC3)NC(=O)[C@H](C)NC(=O)[C@H](CC(=O)O)NC(=O)[C@H](CC(=O)O)NC1=O)NC(=O)[C@H](CC(C)(C)C)NC(=O)[C@H](CC(=O)O)NC2=O (stereo partly drawn) [I-887, Ac-PL3-Asp-Npg-B5-Asp-Asp-Ala-[MePipAc]Lys-Phe-Asn-PyrS2-3Thi-BztA-Gln-NH2]	–	–	14 nM	1.37	46 µM (≈ 97.3 µg/mL)	> 20 µM	–	–	–	–
CC(=O)N1CCC[C@]12CC=CCCCC1(CCCC=CCCCOC(=O)N3CC[C@@](C(=O)N[C@@H](Cc4ccccc4Cl)C(=O)N[C@@H](Cc4csc5ccccc45)C(=O)N[C@@H](C(N)=O)[C@H](C)O)(C3)NC(=O)[C@H](CC(N)=O)NC(=O)[C@H](Cc3ccccc3)NC(=O)[C@H](C)NC(=O)[C@H](C)NC(=O)[C@H](CCC(=O)O)NC(=O)[C@H](CC(=O)O)NC1=O)NC(=O)[C@H](CC(C)(C)C)NC(=O)[C@H](CC(=O)O)NC2=O (stereo partly drawn) [I-1031, Ac-PL3-Asp-Npg-B5-Asp-Glu-Ala-Ala-Phe-Asn-PyrS2-2C1F-BztA-dThr-NH2]	–	8.8 µM	11 nM	2.42	47 µM (≈ 90.9 µg/mL)	–	–	–	–	–
CC(=O)N1CCC[C@]12CC=CCCCC1(CCCC=CCCCOC(=O)N3CC[C@@](C(=O)N[C@@H](Cc4ccccc4Cl)C(=O)N[C@@H](Cc4csc5ccccc45)C(=O)N[C@@H](CCC(N)=O)C(N)=O)(C3)NC(=O)[C@H]([C@@H](C)O)NC(=O)[C@H](Cc3ccccc3)NC(=O)[C@H](C)NC(=O)[C@H](C)NC(=O)[C@H](CC(=O)O)NC(=O)[C@H](CC(=O)O)NC1=O)NC(=O)[C@H](CC1CCCCC1)NC(=O)[C@H](CC(=O)O)NC2=O (stereo partly drawn) [I-1042, Ac-PL3-Asp-Cha-B5-Asp-Asp-Ala-Ala-Phe-Thr-PyrS2-2C1F-BztA-Gln-NH2]	–	–	5 nM	2.35	46 µM (≈ 90.1 µg/mL)	11.4 µM	–	–	–	–
CC[C@H](C)[C@@H]1NC(=O)[C@H](CC(=O)O)NC(=O)[C@]2(CC=CCCCC3(CCCC=CCCCCCC[C@@](C)(C(=O)N[C@@H](Cc4ccccc4OC)C(=O)N[C@@H](Cc4csc5ccccc45)C(=O)N[C@@H](CCC(N)=O)C(N)=O)NC(=O)[C@H](CC(N)=O)NC(=O)[C@H](Cc4ccccc4)NC(=O)[C@H](C)NC(=O)[C@H](C)NC(=O)[C@H](CC(=O)O)NC(=O)[C@H](CC(=O)O)NC3=O)NC1=O)CCCN2C(C)=O (stereo partly drawn) [I-550, Ac-PL3-Asp-Ile-B5-Asp-Asp-Ala-Ala-Phe-Asn-S8-2OMeF-BztA-Gln-NH2]	50 µM (≈ 94.3 µg/mL)	21.4 µM	–	–	–	–	30 nM	30 nM	2.343	–
CC(=O)N1CCC[C@]12CC=CCCCC1(CCCC=CCCCCCC[C@@](C)(C(=O)N[C@@H](Cc3ccccc3)C(=O)N[C@@H](Cc3csc4ccccc34)C(=O)N[C@@H](CCC(N)=O)C(N)=O)NC(=O)[C@H](CC(N)=O)NC(=O)[C@H](Cc3ccccc3)NC(=O)[C@H](C)NC(=O)[C@H](C)NC(=O)[C@H](CCC(=O)O)NC(=O)[C@H](CC(=O)O)NC1=O)NC(=O)[C@H](CC(C)C)NC(=O)[C@H](CC(=O)O)NC2=O (stereo partly drawn) [I-577, Ac-PL3-Asp-Leu-B5-Asp-Glu-Ala-Ala-Phe-Asn-S8-Phe-BztA-Gln-NH2]	47 µM (≈ 87.9 µg/mL)	10.4 µM	–	–	–	–	13 nM	13 nM	2.376	–
CC(=O)N1CCC[C@]12CC=CCCCC1(CCCC=CCCCOC(=O)N3CC[C@@](C(=O)N[C@@H](Cc4ccccc4F)C(=O)N[C@@H](Cc4csc5ccccc45)C(=O)N[C@@H](CO)C(N)=O)(C3)NC(=O)[C@H]([C@@H](C)O)NC(=O)[C@H](Cc3ccccc3)NC(=O)[C@H](C)NC(=O)[C@H](C)NC(=O)[C@H](CC(=O)O)NC(=O)[C@H](CC(=O)O)NC1=O)NC(=O)[C@H](CC(C)(C)C)NC(=O)[C@H](CC(=O)O)NC2=O (stereo partly drawn) [I-1023, Ac-PL3-Asp-Npg-B5-Asp-Asp-Ala-Ala-Phe-Thr-PyrS2-2FF-BztA-Ser-NH2]	–	–	10 nM	2.17	46 µM (≈ 86.3 µg/mL)	15 µM	–	–	–	–
CCCCCCCC(=O)NCCCC[C@H](NC(=O)[C@H](CCC(N)=O)NC(=O)[C@H](Cc1csc2ccccc12)NC(=O)[C@H](Cc1ccsc1)NC(=O)[C@]12CCN(C1)C(=O)OCCCC=CCCCC1(CCCC=CC[C@]3(CCCN3C(C)=O)C(=O)N[C@@H](CC(=O)O)C(=O)N[C@@H](CC(C)(C)C)C(=O)N1)C(=O)N[C@@H](CC(=O)O)C(=O)N[C@@H](CC(=O)O)C(=O)N[C@@H](C)C(=O)N[C@@H](C)C(=O)N[C@@H](Cc1ccccc1)C(=O)N[C@@H](CC(N)=O)C(=O)N2)C(N)=O (stereo partly drawn) [I-918, Ac-PL3-Asp-Npg-B5-Asp-Asp-Ala-Ala-Phe-Asn-PyrS2-3Thi-BztA-Gln-[Oct]Lys-NH2]	–	–	33 nM	2.49	44 µM (≈ 95.6 µg/mL)	11.1 µM	–	–	–	–
CC(=O)N1CCC[C@]12CC=CCCCC1(CCCC=CCCCCCC[C@@](C)(C(=O)N[C@@H](Cc3ccsc3)C(=O)N[C@@H](Cc3csc4ccccc34)C(=O)N[C@@H](CCC(N)=O)C(N)=O)NC(=O)[C@H](CC(N)=O)NC(=O)[C@H](Cc3ccccc3)NC(=O)[C@H](C)NC(=O)[C@H](C)NC(=O)[C@H](CC(=O)O)NC(=O)[C@H](CC(=O)O)NC1=O)NC(=O)[C@H](CC(C)(C)C)NC(=O)[C@H](CC(=O)O)NC2=O (stereo partly drawn) [I-678, Ac-PL3-Asp-Npg-B5-Asp-Asp-Ala-Ala-Phe-Asn-S8-3Thi-BztA-Gln-NH2]	49 µM (≈ 91.9 µg/mL)	16.8 µM	–	–	–	–	26 nM	26 nM	2.329	–
CC(=O)N1CCC[C@]12CC=CCCCC1(CCCC=CCCCCOC(=O)N3CC[C@@](C(=O)N[C@@H](Cc4ccsc4)C(=O)N[C@@H](Cc4csc5ccccc45)C(=O)N[C@@H](Cc4c[nH]cn4)C(N)=O)(C3)NC(=O)[C@H](CC(N)=O)NC(=O)[C@H](Cc3ccccc3)NC(=O)[C@H](C)NC(=O)[C@H](C)NC(=O)[C@H](CC(=O)O)NC(=O)[C@H](CC(=O)O)NC1=O)NC(=O)[C@H](CC(C)(C)C)NC(=O)[C@H](CC(=O)O)NC2=O (stereo partly drawn) [I-775, Ac-PL3-Asp-Npg-B5-Asp-Asp-Ala-Ala-Phe-Asn-PyrS3-3Thi-BztA-His-NH2]	47 µM (≈ 91.2 µg/mL)	–	6 nM	–	–	> 20 µM	–	7 nM	2.092	5.1%
CC[C@H](C)[C@@H]1NC(=O)[C@H](CC(=O)O)NC(=O)[C@]2(CC=CCCCC3(CCCC=CCCCCCC[C@@](C)(C(=O)N[C@@H](Cc4ccsc4)C(=O)N[C@@H](Cc4csc5ccccc45)C(=O)N[C@@H](CCC(N)=O)C(N)=O)NC(=O)[C@H](CC(N)=O)NC(=O)[C@H](Cc4ccccc4)NC(=O)[C@H](C)NC(=O)[C@H](C)NC(=O)[C@H](CN(CC(=O)O)CC(F)(F)F)NC(=O)[C@H](CC(=O)O)NC3=O)NC1=O)CCCN2C(C)=O (stereo partly drawn) [I-701, Ac-PL3-Asp-Ile-B5-Asp-TfeGA-Ala-Ala-Phe-Asn-S8-3Thi-BztA-Gln-NH2]	46 µM (≈ 90.7 µg/mL)	18.1 µM	–	–	–	–	34 nM	34 nM	2.631	–
